How the values were obtained:
Format in all cases: cell-based
SMARCA4 = target: T1, SMARCA4 (Homo sapiens, UniProt P51532); test: SMARCA4 degradation in VCaP cells by Western blot; details: at 100 nM; for Percent SMARCA4 degradation at 0.1 µM: VCaP, 16 h; for Percent degradation SMARCA4: 16 hours
T1 construct: endogenous in cells; host or cells: VCaP (ATCC CRL-2876)
Procedure: (§1) Example-P2: Determination of SMARCA2 and SMARCA4 Degradation in VCaP Cells by Western Blot
(§2) VCaP (ATCC CRL-2876) was plated in 6 well plates using complete Dulbecco's Modified Eagle's Medium. On the third day, compounds of present invention were added to cells from 10 mM stocks made in DMSO (Sigma Cat no. D2650). Each compound was tested at 100 nM concentration with DMSO not exceeding final percentage of 0.3 in the cells. Cells were incubated with the compound for 16 hours followed by harvesting with 1×RIPA lysis buffer (Thermo Fischer, catalogue number #89900) containing protease inhibitor cocktail (Sigma catalogue number #P-8340). Equal amount of protein was loaded on SDS PAGE gel for electrophoresis. Western blot was carried out for detection of either SMARCA2 (Cell signalling technologies, catalogue number #11966) or SMARCA4 antibody (Cell signalling technologies, catalogue number #52251). Beta-Tubulin antibody (Cell signalling technologies, catalogue number #86298) was used as loading control. Percentage of SMARCA2 or SMARCA4 degradation was calculated by using formula: […]

VCaP cells = test: Anti proliferative activity in VCaP cell line by CellTiter Glo assay; details: Homo sapiens, VCaP, 192 h, 8 days incubation, CellTiter Glo luminescence
Procedure: Example-P1: Determination of Anti Proliferative Activity of Compounds in Cell Lines VCaP by Cell Titer Glo©(Promega) Assay
VCaP (ATCC CRL-2876) cells were seeded in 96 well plate flat black clear bottom plates (Corning, Cat. No 3904) using complete DMEM Medium. Next day, compounds listed in the present invention were added to cells from 10 mM stocks made in DMSO (Sigma Cat no. D2650). Each concentration of compound was tested in triplicate with DMSO concentration at a final percentage not exceeding 0.3 in the cells. After the incubation of VCaP cells with compound for 8 days assay was terminated using 50 μl of CellTiter Glo© reagent (Promega, Cat. no G7572). CellTiter-Glo® Luminescent reagent determines the number of viable cells based on quantitation of ATP present which is an indicator of cell number and metabolic activity. Luminescence readings were taken in Victor-3 instrument. Percent inhibition of proliferation was calculated using formula, % inhibition=100−(luminescence value of test/luminescence value of DMSO control)*100. DMSO control (0%)=Cells in complete media with DMSO; blank=Media alone containing DMSO. EC50 was calculated using graph pad prism software.
Herein the group “A” refers to EC50 values lower than l0 nM, group “B” refers to EC50 values between l0 nM-100 nM (both inclusive) and group “C” refers to EC50 values greater than 100 nM.

SMARCA2 = target: T2, SMARCA2 (Homo sapiens, UniProt P51531); test: SMARCA2 degradation in VCaP cells by Western blot; details: at 100 nM, 16 hours
T2 construct: endogenous in cells; host or cells: VCaP (ATCC CRL-2876)
T2 sequence (P51531 whole entry): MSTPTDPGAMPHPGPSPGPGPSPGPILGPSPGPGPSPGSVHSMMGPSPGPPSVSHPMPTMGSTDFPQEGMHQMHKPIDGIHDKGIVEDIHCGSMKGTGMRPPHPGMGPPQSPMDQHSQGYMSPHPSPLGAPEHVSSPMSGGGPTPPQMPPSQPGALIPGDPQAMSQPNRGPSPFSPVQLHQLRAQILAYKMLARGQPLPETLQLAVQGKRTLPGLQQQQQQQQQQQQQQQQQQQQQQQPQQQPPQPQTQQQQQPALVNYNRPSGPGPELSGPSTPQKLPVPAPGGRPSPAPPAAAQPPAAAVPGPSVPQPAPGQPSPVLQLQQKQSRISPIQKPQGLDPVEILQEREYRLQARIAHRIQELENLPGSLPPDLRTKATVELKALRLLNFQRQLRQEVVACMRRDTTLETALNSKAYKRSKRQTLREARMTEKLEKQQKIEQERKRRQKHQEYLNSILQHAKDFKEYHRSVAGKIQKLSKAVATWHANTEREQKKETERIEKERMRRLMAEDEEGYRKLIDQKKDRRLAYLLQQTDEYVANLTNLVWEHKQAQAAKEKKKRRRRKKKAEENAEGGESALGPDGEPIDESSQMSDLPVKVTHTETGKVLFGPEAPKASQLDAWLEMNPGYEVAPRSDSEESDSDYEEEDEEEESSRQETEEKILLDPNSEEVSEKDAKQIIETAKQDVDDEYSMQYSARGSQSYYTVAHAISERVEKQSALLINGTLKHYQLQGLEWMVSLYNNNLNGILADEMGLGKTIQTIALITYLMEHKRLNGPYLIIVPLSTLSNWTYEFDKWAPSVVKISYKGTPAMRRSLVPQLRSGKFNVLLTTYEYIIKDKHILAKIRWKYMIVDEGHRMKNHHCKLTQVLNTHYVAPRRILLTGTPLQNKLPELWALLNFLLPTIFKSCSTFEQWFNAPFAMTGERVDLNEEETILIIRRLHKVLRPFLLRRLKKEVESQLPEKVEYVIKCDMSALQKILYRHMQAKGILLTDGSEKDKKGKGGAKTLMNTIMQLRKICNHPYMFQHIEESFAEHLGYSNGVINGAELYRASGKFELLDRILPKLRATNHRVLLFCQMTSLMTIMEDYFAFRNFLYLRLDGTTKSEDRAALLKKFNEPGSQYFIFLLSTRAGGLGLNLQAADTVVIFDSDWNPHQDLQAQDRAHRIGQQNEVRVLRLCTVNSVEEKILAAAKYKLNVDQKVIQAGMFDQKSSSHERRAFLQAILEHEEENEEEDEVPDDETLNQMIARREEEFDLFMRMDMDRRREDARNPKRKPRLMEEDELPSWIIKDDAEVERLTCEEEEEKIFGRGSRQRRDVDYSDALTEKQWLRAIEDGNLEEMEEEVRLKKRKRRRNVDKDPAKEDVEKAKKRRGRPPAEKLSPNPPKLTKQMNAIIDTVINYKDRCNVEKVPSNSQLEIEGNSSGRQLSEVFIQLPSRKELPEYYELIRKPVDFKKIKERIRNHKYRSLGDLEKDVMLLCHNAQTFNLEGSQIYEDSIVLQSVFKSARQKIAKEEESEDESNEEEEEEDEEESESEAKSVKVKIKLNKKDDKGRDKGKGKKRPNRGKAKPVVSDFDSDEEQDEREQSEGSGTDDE
Procedure: as §1, §2

T1 sequence (P51532 whole entry): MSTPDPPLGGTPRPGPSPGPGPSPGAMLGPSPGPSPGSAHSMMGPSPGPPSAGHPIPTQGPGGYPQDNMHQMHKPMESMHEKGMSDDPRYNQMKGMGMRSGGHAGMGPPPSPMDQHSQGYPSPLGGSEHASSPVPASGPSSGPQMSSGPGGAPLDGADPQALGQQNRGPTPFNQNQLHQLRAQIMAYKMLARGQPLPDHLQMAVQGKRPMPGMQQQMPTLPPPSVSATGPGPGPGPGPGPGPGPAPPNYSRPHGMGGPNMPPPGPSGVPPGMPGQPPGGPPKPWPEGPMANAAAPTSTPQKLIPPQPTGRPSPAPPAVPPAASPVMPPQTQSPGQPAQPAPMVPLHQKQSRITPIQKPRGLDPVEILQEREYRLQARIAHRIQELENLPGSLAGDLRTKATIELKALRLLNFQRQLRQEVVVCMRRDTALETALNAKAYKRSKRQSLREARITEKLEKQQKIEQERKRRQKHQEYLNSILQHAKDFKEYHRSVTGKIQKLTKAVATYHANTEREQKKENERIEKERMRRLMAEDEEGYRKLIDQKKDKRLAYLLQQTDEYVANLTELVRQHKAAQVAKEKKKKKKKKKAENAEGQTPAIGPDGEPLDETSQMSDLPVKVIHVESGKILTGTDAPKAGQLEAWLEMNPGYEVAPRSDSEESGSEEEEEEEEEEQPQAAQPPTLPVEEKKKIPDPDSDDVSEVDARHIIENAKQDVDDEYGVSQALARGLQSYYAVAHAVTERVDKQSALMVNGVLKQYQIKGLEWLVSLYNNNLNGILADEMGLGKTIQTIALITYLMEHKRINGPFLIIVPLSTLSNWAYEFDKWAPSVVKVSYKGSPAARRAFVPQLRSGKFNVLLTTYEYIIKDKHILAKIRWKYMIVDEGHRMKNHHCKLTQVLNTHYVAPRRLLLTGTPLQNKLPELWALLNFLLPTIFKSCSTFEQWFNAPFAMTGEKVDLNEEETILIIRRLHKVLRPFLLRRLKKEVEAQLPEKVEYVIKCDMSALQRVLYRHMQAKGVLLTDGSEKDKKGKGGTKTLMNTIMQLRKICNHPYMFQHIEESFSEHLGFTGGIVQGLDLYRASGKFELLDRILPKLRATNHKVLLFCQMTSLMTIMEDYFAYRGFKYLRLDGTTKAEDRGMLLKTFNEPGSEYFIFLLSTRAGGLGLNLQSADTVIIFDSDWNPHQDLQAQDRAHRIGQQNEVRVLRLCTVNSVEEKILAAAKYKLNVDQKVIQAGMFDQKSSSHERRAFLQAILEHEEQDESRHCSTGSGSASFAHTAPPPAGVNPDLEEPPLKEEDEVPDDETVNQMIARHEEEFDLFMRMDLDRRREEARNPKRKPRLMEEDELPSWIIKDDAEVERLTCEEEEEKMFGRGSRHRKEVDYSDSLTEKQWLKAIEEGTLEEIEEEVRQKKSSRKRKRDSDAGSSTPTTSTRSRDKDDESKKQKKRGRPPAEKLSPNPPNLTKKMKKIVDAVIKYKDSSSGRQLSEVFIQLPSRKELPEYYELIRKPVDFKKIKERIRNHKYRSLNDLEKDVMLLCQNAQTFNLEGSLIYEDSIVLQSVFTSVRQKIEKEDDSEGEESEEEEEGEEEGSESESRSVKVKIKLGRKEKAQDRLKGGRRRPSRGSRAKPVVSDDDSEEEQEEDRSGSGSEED

Row | SMILES | Percent SMARCA4 degradation at 0.1 µM (SMARCA4) | EC50 (VCaP cells) | Percent degradation SMARCA2 (SMARCA2) | Percent degradation SMARCA4 (SMARCA4)
1 | Cc1ncsc1-c1ccc([C@H](C)NC(=O)[C@@H]2C[C@@H](O)CN2C(=O)[C@@H](NC(=O)CN2CCC(O)(c3ccc(-c4cc(-c5ccccc5O)nnc4N)cc3)CC2)C(C)(C)C)cc1 [Compound 48, (2S,4R)-1-((S)-2-(2-(4-(4-(3-amino-6-(2-hydroxyphenyl)pyridazin-4-yl)phenyl)-4-hydroxypiperidin-1-yl)acetamido)-3,3-dimethylbutanoyl)-4-hydroxy-N-((S)-1-(4-(4-methylthiazol-5-yl)phenyl)ethyl)pyrrolidine-2-carboxamide] | 20% | 10 to 100 nM | 97% | –
2 | Cc1ncsc1-c1ccc([C@H](C)NC(=O)[C@@H]2C[C@@H](O)CN2C(=O)[C@@H](NC(=O)CN2CCN(c3ccc(-c4cc(-c5ccccc5O)nnc4N)cn3)CC2)C(C)(C)C)cc1 [Compound 25, (2S,4R)-1-((S)-2-(2-(4-(5-(3-amino-6-(2-hydroxyphenyl)pyridazin-4-yl)pyridin-2-yl)piperazin-1-yl)acetamido)-3,3-dimethylbutanoyl)-4-hydroxy-N—((S)-1-(4-(4-methylthiazol-5-yl)phenyl)ethyl)pyrrolidine-2-carboxamide] | 92% | < 10 nM | 97% | –
3 | Cc1ncsc1-c1ccc([C@H](C)NC(=O)[C@@H]2C[C@@H](O)CN2C(=O)[C@@H](NC(=O)CN2CCN(c3ccc(-c4cc(-c5ccccc5O)nnc4N)cc3)CC2)C(C)(C)C)cc1 [Compound 12, (2S,4R)-1-((S)-2-(2-(4-(4-(3-amino-6-(2-hydroxyphenyl)pyridazin-4-yl)phenyl)piperazin-1-yl)acetamido)-3,3-dimethylbutanoyl)-4-hydroxy-N—((S)-1-(4-(4-methylthiazol-5-yl)phenyl)ethyl)pyrrolidine-2-carboxamide] | 54% | < 10 nM | 98% | –
4 | Cc1ncsc1-c1ccc([C@H](C)NC(=O)[C@@H]2C[C@@H](O)CN2C(=O)[C@@H](NC(=O)CCCC#Cc2ccc(-c3cc(-c4ccccc4O)nnc3N)cc2)C(C)(C)C)cc1 [Compound 19, (2S,4R)-1-((S)-2-(6-(4-(3-amino-6-(2-hydroxyphenyl)pyridazin-4-yl)phenyl)hex-5-ynamido)-3,3-dimethylbutanoyl)-4-hydroxy-N—((S)-1-(4-(4-methylthiazol-5-yl)phenyl)ethyl)pyrrolidine-2-carboxamide] | 96% | < 10 nM | 96% | –
5 | Cc1ncsc1-c1ccc([C@H](C)NC(=O)[C@@H]2C[C@@H](O)CN2C(=O)[C@@H](NC(=O)CN2CCC(c3ccc(-c4cc(-c5cc(F)ccc5O)nnc4N)cc3)CC2)C(C)(C)C)cc1 [Compound 31, (2S,4R)-1-((S)-2-(2-(4-(4-(3-amino-6-(5-fluoro-2-hydroxyphenyl)pyridazin-4-yl)phenyl)piperidin-1-yl)acetamido)-3,3-dimethylbutanoyl)-4-hydroxy-N-((S)-1-(4-(4-methylthiazol-5-yl)phenyl)ethyl)pyrrolidine-2-carboxamide] | 90% | 10 to 100 nM | 99% | –
6 | Cc1ncsc1-c1ccc([C@H](C)NC(=O)[C@@H]2C[C@@H](O)CN2C(=O)[C@@H](c2cc(-c3ccc(-c4cc(-c5ccccc5O)nnc4N)cc3)no2)C(C)C)cc1 [Compound 6, (2S,4R)-1-((R)-2-(3-(4-(3-amino-6-(2-hydroxyphenyl)pyridazin-4-yl)phenyl)isoxazol-5-yl)-3-methylbutanoyl)-4-hydroxy-N—((S)-1-(4-(4-methylthiazol-5-yl)phenyl)ethyl)pyrrolidine-2-carboxamide] | 85% | 10 to 100 nM | 100% | –
7 | Cc1ncsc1-c1ccc([C@H](C)NC(=O)[C@@H]2C[C@@H](O)CN2C(=O)[C@@H](NC(=O)C(C)N2CCC(c3ccc(-c4cc(-c5ccccc5O)nnc4N)cc3)CC2)C(C)(C)C)cc1 (single isomer, unassigned) [Compound 34] | – | > 100 nM | 91% | 0%

Next, values leading:

Row | Percent SMARCA4 degradation at 0.1 µM (SMARCA4) | EC50 (VCaP cells) | Percent degradation SMARCA2 (SMARCA2) | Percent degradation SMARCA4 (SMARCA4) | SMILES
8 | – | < 10 nM | 99% | 94% | Cc1ncsc1-c1ccc([C@H](C)NC(=O)[C@@H]2C[C@@H](O)CN2C(=O)[C@@H](NC(=O)C2CCC(c3ccc(-c4cc(-c5ccccc5O)nnc4N)cc3)CC2)C(C)(C)C)cc1 (single isomer, unassigned) [Compound 42]
9 | 90% | 10 to 100 nM | 99% | – | Cc1ncsc1-c1ccc([C@H](C)NC(=O)[C@@H]2C[C@@H](O)CN2C(=O)[C@@H](NC(=O)CCCCOc2ccc(-c3cc(-c4ccccc4O)nnc3N)cc2)C(C)(C)C)cc1 [Compound 58, (2S,4R)-1-((S)-2-(5-(4-(3-amino-6-(2-hydroxyphenyl)pyridazin-4-yl)phenoxy)pentanamido)-3,3-dimethylbutanoyl)-4-hydroxy-N—((S)-1-(4-(4-methylthiazol-5-yl)phenyl)ethyl)pyrrolidine-2-carboxamide]
10 | 88% | < 10 nM | 97% | – | Cc1ncsc1-c1ccc([C@H](C)NC(=O)[C@@H]2C[C@@H](O)CN2C(=O)[C@@H](NC(=O)CN2CCC(c3ccc(-c4cc(-c5ccccc5O)nnc4N)cc3)CC2C)C(C)(C)C)cc1 (mixture of isomers) [Compound 35, (2S,4R)-1-((2S)-2-(2-(4-(4-(3-amino-6-(2-hydroxyphenyl)pyridazin-4-yl)phenyl)-2-methylpiperidin-1-yl)acetamido)-3,3-dimethylbutanoyl)-4-hydroxy-N-((S)-1-(4-(4-methylthiazol-5-yl)phenyl)ethyl)pyrrolidine-2-carboxamide]
11 | 86% | < 10 nM | 97% | – | Cc1ncsc1-c1ccc([C@H](C)NC(=O)[C@@H]2C[C@@H](O)CN2C(=O)[C@@H](NC(=O)CC2CCC(c3ccc(-c4cc(-c5ccccc5O)nnc4N)cc3)CC2)C(C)(C)C)cc1 (mixture of isomers) [Compound 43, (2S,4R)-1-((S)-2-(2-(4-(4-(3-amino-6-(2-hydroxyphenyl)pyridazin-4-yl)phenyl)cyclohexyl)acetamido)-3,3-dimethylbutanoyl)-4-hydroxy-N-((S)-1-(4-(4-methylthiazol-5-yl)phenyl)ethyl)pyrrolidine-2-carboxamide]
12 | 0% | > 100 nM | 85% | – | Cc1ncsc1-c1ccc([C@H](C)NC(=O)[C@@H]2C[C@@H](O)CN2C(=O)[C@@H](NC(=O)Cn2ccc(-c3ccc(-c4cc(-c5ccccc5O)nnc4N)cc3)c2)C(C)(C)C)cc1 [Compound 50, (2S,4R)-1-((S)-2-(2-(3-(4-(3-amino-6-(2-hydroxyphenyl)pyridazin-4-yl)phenyl)-1H-pyrrol-1-yl)acetamido)-3,3-dimethylbutanoyl)-4-hydroxy-N-((S)-1-(4-(4-methylthiazol-5-yl)phenyl)ethyl)pyrrolidine-2-carboxamide]

From US20250145609A1, “3-SUBSTITUTED PYRIDAZINE COMPOUNDS AS SMARCA2 AND/OR SMARCA4 DEGRADERS” (Aurigene Oncology Limited, priority 2022, published 2025)
